Source: PubChem BioAssay AID1259411 (Chemical Carcinogenesis Research Information System (CCRIS), 2018)
The source made the active and inactive calls. How the calls were made is not given here.

Tested on: rodent carcinogenicity bioassays, tumor incidence
Test: CCRIS carcinogenicity studies
Outline: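 Archive of carcinogenicity, mutagenicity, tumor promotion and tumor inhibition results drawn from journals, NCI reports and other sources, expert-reviewed; covers 1985-2011 and is no longer updated.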

For `Nc1ncc([N+](=O)[O-])s1`, the carcinogen call (Species: MOUSE, Strain/Sex: B6C3F1/FEMALE, Route: ORAL, Dose: 0, 50, 100 PPM IN DIET, Dose: 0, 50, 100 PPM IN DIET) was “inactive; negative”, the carcinogen call (Species: MOUSE, Strain/Sex: B6C3F1/MALE, Route: ORAL, Dose: 0, 50, 100 PPM IN DIET, Dose: 0, 50, 100 PPM IN DIET) was “inactive; negative” and the carcinogen call (Species: RAT, Strain/Sex: F344/FEMALE, Route: ORAL, Dose: 0, 300, 600 PPM IN DIET, Dose: 0, 300, 600 PPM IN DIET) was “inactive; negative”.

For `COc1cc(OC)nc(NC(=O)NS(=O)(=O)c2c(Cl)nc3ccccn23)n1`, the carcinogen call (Species: Mouse, Strain/Sex: CD-1/Female (50/Group), Route: Oral, Dose: 0, 86.8, 870.0, 10,303.5 mg/kg/day of 99.6-99.8% imazosulfuron in diet for 18 mo, study duration 18 mo, Dose: 0, 86.8, 870.0, 10,303.5 mg/kg/day of 99.6-99.8% imazosulfuron in diet for 18 mo, study duration 18 mo) was “inactive; negative”, the carcinogen call (Species: Mouse, Strain/Sex: CD-1/Male (50/Group), Route: Oral, Dose: 0, 72.7, 741.3, 7848.1 mg/kg/day of 99.6-99.8% imazosulfuron in diet for 18 mo, study duration 18 mo, Dose: 0, 72.7, 741.3, 7848.1 mg/kg/day of 99.6-99.8% imazosulfuron in diet for 18 mo, study duration 18 mo) was “inactive; negative” and the carcinogen call (Species: Rat, Strain/Sex: CD (Sprague-Dawley derived)/Female (50/Group), Route: Oral, Dose: 0, 12.94, 132.46, 1554.35 mg/kg/day of 99.6-99.8% imazosulfuron in diet for 24 mo, study duration 24 mo, Dose: 0, 12.94, 132.46, 1554.35 mg/kg/day of 99.6-99.8% imazosulfuron in diet for 24 mo, study duration 24 mo) was “inactive; negative”. For the same compound, the carcinogen call (Species: Rat, Strain/Sex: CD (Sprague-Dawley derived)/Male (50/Group), Route: Oral, Dose: 0, 10.39, 106.10, 1123.99 mg/kg/day of 99.6-99.8% imazosulfuron in diet for 24 mo, study duration 24 mo, Dose: 0, 10.39, 106.10, 1123.99 mg/kg/day of 99.6-99.8% imazosulfuron in diet for 24 mo, study duration 24 mo) was “inactive; negative”.

In the case of `Oc1ccc2ccccc2c1N=Nc1ccc(N=Nc2ccccc2)cc1`, the carcinogen call (Species: MOUSE, Strain/Sex: SWISS-WEBSTER/FEMALE, Route: DERMAL, Dose: 0, 1% IN 0.1 ML 0.1% SODIUM LAURYL SULFATE 1/WK FOR 18 MO (STUDY DURATION: 18 MO)) is reported as “inactive; negative” and the carcinogen call (Species: MOUSE, Strain/Sex: SWISS-WEBSTER/MALE, Route: DERMAL, Dose: 0, 1% IN 0.1 ML 0.1% SODIUM LAURYL SULFATE 1/WK FOR 18 MO (STUDY DURATION: 18 MO)) is reported as “inactive; negative”.

For `COc1nc(C)nc(NC(=O)NS(=O)(=O)c2ccccc2Cl)n1`, the carcinogen call (Species: Rat, Strain/Sex: CD/Female (50/group), Route: Oral, Dose: 0, 100, 500, 2,500 ppm in diet for 2 yr, Dose: 0, 100, 500, 2,500 ppm in diet for 2 yr) was “inactive; negative (study details not given in source; purity 92-95%)” and the carcinogen call (Species: Rat, Strain/Sex: CD/Male (50/group), Route: Oral, Dose: 0, 100, 500, 2,500 ppm in diet for 2 yr, Dose: 0, 100, 500, 2,500 ppm in diet for 2 yr) was “inactive; negative (study details not given in source; purity 92-95%)”.

For `O=Cc1ccccc1`, the carcinogen call (Species: MOUSE, Strain/Sex: B6C3F1/FEMALE, Route: GAVAGE, Dose: 0, 300, 600 MG/KG IN CORN OIL 5 D/WK FOR 103 WK (STUDY DURATION: 104 WK), Dose: 0, 300, 600 MG/KG IN CORN OIL 5 D/WK FOR 103 WK (STUDY DURATION: 104 WK), Tumor Site: Type of Lesion: FORESTOMACH: SQUAMOUS PAPILLOMA) was “active; positive”, the carcinogen call (Species: MOUSE, Strain/Sex: B6C3F1/MALE, Route: GAVAGE, Dose: 0, 200, 400 MG/KG IN CORN OIL 5 D/WK FOR 104 WK (STUDY DURATION: 105 WK), Dose: 0, 200, 400 MG/KG IN CORN OIL 5 D/WK FOR 104 WK (STUDY DURATION: 105 WK), Tumor Site: Type of Lesion: FORESTOMACH: SQUAMOUS PAPILLOMA) was “active; positive” and the carcinogen call (Species: RAT, Strain/Sex: F344/FEMALE, Route: GAVAGE, Dose: 0, 200, 400 MG/KG IN CORN OIL 5 D/WK FOR 103 WK (STUDY DURATION: 105 WK), Dose: 0, 200, 400 MG/KG IN CORN OIL 5 D/WK FOR 103 WK (STUDY DURATION: 105 WK)) was “inactive; negative”. The carcinogen call (Species: RAT, Strain/Sex: F344/MALE, Route: GAVAGE, Dose: 0, 200, 400 MG/KG IN CORN OIL 5 D/WK FOR 103 WK (STUDY DURATION: 105 WK), Dose: 0, 200, 400 MG/KG IN CORN OIL 5 D/WK FOR 103 WK (STUDY DURATION: 105 WK)) was “inactive; negative”.

In the case of `ClCC(Cl)(Cl)Cl`, the carcinogen call (Species: MOUSE, Strain/Sex: B6C3F1/FEMALE, Route: GAVAGE, Dose: 0, 250, 500 MG/KG IN CORN OIL, Dose: 0, 250, 500 MG/KG IN CORN OIL, Tumor Site: Type of Lesion: LIVER: HEPATOCELLULAR ADENOMA OR CARCINOMA) is reported as “active; positive”, the carcinogen call (Species: MOUSE, Strain/Sex: B6C3F1/MALE, Route: GAVAGE, Dose: 0, 250, 500 MG/KG IN CORN OIL, Dose: 0, 250, 500 MG/KG IN CORN OIL, Tumor Site: Type of Lesion: LIVER: HEPATOCELLULAR ADENOMA) is reported as “active; positive” and the carcinogen call (Species: RAT, Strain/Sex: F344/FEMALE, Route: GAVAGE, Dose: 0, 125, 250 MG/KG IN CORN OIL 5 D/WK FOR 103 WK (STUDY DURATION: 103 WK), Dose: 0, 125, 250 MG/KG IN CORN OIL 5 D/WK FOR 103 WK (STUDY DURATION: 103 WK)) is reported as “inactive; negative”. The carcinogen call (Species: RAT, Strain/Sex: F344/MALE, Route: GAVAGE, Dose: 0, 125, 250 MG/KG IN CORN OIL 5 D/WK FOR 103 WK (STUDY DURATION: 103 WK), Dose: 0, 125, 250 MG/KG IN CORN OIL 5 D/WK FOR 103 WK (STUDY DURATION: 103 WK), Tumor Site: Type of Lesion: LIVER: NEOPLASTIC NODULE, HEPATOCELLULAR CARCINOMA) was “equivocal”.

`NNC(N)=O` was tested, and the carcinogen call (Species: MOUSE, Strain/Sex: SWISS/FEMALE, Route: ORAL, Dose: 0.0625% IN DRINKING WATER FOR LIFE, Tumor Site: Type of Lesion: BLOOD VESSELS: ANGIOMA, ANGIOSARCOMA, LUNG) was “active; positive” and the carcinogen call (Species: RAT, Strain/Sex: STRAIN-CD/FEMALE, Route: ORAL, Dose: 500, 1000 PPM IN DIET FOR 78 WK (LOW DOSE) OR 32 WK (HIGH DOSE)) was “inactive; negative”.
